Consider two compounds from patent US11213512B2, “Bis-amino acid based compound and use thereof” (THE CURATORS OF THE UNIVERSITY OF MISSOURI, priority 2016, dated 2022).

The structures appear in SMILES notation.

For one data set, the system named is HEK-293 cells. Kind of data set: Mammalian cell permeability and vitality, confocal microscopy (propidium iodide / fluorescein diacetate). In kind it is cell-based, human. Particulars: 2 hours. The protocol: To test the permeability of HEK-293 cells, the cells were cultured in growth medium as described above. HEK-293 (90% confluent) were then seeded in a 96-well plate to get 30,000 cells/well. After 24 hours of incubation at 37° C. and 5% CO2, the spent media was replaced with media (DMEM and 10% FBS) containing compound 2 at either 20 μM or 80 μM. […] Triton X-100 at 0.1%—by volume (1670 μM) and DMSO 0.5% (v/v) were also used as controls. After 2 hours of incubation, spent media was replaced with PBS containing propidium iodide (30 μM) and fluorescein diacetate (60 μM) and incubated at 37° C. and 5% CO2. After 2 hour of incubation, the spend media was replaced with fresh PBS and the cells were observed under Zeiss LSM 700 confocal microscope. The images were reported without any alterations. The gain and the intensity in all the images were kept constant.
A compound that inhibits bacterial growth and penetrates into the microbe's cytosol may also penetrate into mammalian cells. A similar microscopic study was conducted with the human embryonic kidney (HEK-293) cell line. In this case, only compound 2 was studied. […] The microscopic study was therefore conducted at 20 μM, a value well below any inhibitory concentration, and at 80 μM, a concentration above all three MIC values. The 80 μM concentration was used to confirm the […] of 2 and to establish the lack of serum inhibition.

For data set [1], the system named is Staphylcoccus aureus 1199B. Kind of data set: Checkerboard combination with norfloxacin or ethidium bromide. Particulars: compound at ½ MIC or 2 μM; additive not stated. In kind it is cell-based, Staphylococcus aureus. The protocol: Two different strains of E. coli (Gram-negative) were used. The laboratory strain of E. coli, K-12 (ATCC Accession No. 700926), was used for preliminary MIC determinations. The tetracycline resistant strain of E. coli (Tet^R) was prepared by transforming competent JM109 E. coli (Promega) with the pBR322 plasmid (Carolina Biologicals) using the manufacturers protocol. This plasmid contains two resistance genes: the tetA gene expresses the tetracycline resistance TetA efflux pump (Sapunaric and Levy, Microbiol. 2005, 151, 2315-2322) and the amp^R gene expresses a β-lactamase enzyme (Bolivar, et al; Gene 1977, 2, 95-113) that cleaves the four membered ring of penicillin derivatives. The resulting E. coli, which we designate Tet^R E. coli, is both tetracycline and ampicillin resistant. The TetA efflux pump belongs to the major facilitator superfamily (MFS), spans the cytoplasmic membrane, and transports tetracycline from the cell cytoplasm to the periplasmic space (Thanassi, et al., J. Bacteriol. 1995, 177, 998-1007). This active efflux utilizes the proton gradient as an energy source (Levy, Antimicrob. Agents Chemother. 1992, 36, 695-703). […]
Similar experiments to those described in Example 7 above were conducted, wherein the antimicrobial activity of various compounds was determined against Staphylcoccus aureus 1199B. […]

Consider `Cl.Cl.N[C@@H](Cc1c[nH]c2ccccc12)C(=O)Nc1cccc(NC(=O)[C@@H](N)Cc2c[nH]c3ccccc23)c1` [Compound 2, (2S,2′S)-1,1′-(1,3-Phenylenebis(azanediyl))bis(3-(1H-indol-3-yl)-1-oxopropan-2-aminium) chloride], for which the “cellular vitality (FDA fluorescence)” value is “no loss of vitality” in the data set with HEK-293 cells (20 μM) and “some toxic effect was apparent” in the data set on HEK-293 cells (80 μM). In the case of `Cl.Cl.N[C@H](Cc1c[nH]c2ccccc12)C(=O)NCCCCCCCCCCCCNC(=O)[C@@H](N)Cc1c[nH]c2ccccc12` [Compound 10, (S)-1-((12-((R)-2-Ammonio-3-(1H-indol-3-yl)propanamido)dodecyl)amino)-3-(1H-indol-3-yl)-1-oxopropan-2-aminium chloride], in data set [1], the “activity recovered (fold)” value is on record as 128 fold.
